In one data set the test system is SH-SY5Y. Kind of data set: Cytotoxicity against human SH-SY5Y cells assessed as reduction in cell viability after 72 hrs by MTT assay. Format: cell-based. Background: Formazan colour is commonly taken as a measure of viable cells.
In the next data set the test system is S1R (sigma-1 receptor). Kind of data set: Selectivity index, ratio of IC50 for human SH-SY5Y cells to Ki for S1R in human Jurkat cell membranes. It counts as toxicity, cell-based.
In data set [1] the target is 5-hydroxytryptamine receptor 7 (Homo sapiens) (UniProt P34969). In words: Antagonist activity at recombinant human 5-HT7R assessed as inhibition of agonist-induced cAMP induction at 10 uM by HTRF assay. Format: functional. For orientation: Time-resolved FRET reads energy transfer from a long-lived donor to a nearby acceptor.
Data set [2] has as its target T1, Type-1 angiotensin II receptor (Homo sapiens) (UniProt P30556).
T1 sequence (whole entry): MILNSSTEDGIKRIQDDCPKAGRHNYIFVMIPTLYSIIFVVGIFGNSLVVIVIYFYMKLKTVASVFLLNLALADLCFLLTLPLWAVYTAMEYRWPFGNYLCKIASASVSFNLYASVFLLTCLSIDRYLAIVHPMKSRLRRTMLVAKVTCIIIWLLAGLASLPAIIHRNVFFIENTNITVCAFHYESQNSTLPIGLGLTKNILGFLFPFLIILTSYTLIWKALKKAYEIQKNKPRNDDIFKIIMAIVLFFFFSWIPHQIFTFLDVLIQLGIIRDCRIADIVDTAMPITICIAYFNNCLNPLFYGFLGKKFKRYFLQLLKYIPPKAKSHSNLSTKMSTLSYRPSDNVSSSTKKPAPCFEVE
Kind of data set: Antagonist activity at recombinant human AT1 receptor assessed as inhibition of agonist-induced […] reporter based assay. Format: functional.

Data set [3] addresses Cannabinoid receptor 1 (Homo sapiens) (UniProt P21554). In words: Antagonist activity at recombinant human CB1 receptor assessed as inhibition of agonist-induced cAMP induction at 10 uM by HTRF assay. Format: functional.
Data set [4] concerns the target T2, Endothelin-1 receptor (Homo sapiens) (UniProt P25101).
T2 sequence (whole entry): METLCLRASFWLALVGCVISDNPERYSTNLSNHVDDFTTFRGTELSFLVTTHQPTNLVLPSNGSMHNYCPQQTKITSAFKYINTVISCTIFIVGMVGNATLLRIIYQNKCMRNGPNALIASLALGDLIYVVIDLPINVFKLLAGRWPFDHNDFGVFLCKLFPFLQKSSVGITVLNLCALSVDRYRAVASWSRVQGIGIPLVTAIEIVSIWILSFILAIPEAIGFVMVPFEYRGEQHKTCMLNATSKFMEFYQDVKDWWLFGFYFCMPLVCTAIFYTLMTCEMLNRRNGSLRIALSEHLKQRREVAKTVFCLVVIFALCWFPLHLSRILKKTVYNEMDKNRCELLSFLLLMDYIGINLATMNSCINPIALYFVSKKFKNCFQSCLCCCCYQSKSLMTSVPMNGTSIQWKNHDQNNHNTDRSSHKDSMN
In words: Antagonist activity at recombinant human ETA receptor assessed as inhibition of agonist induced effect at 10 uM by aequorin reporter based assay. It counts as functional.

Data set [5] deals with Glutamate [NMDA] receptor (Homo sapiens) (UniProt Q05586+Q12879+Q13224+O15399+O60391+Q14957+Q8TCU5). Kind of data set: Antagonist activity at recombinant human NMDA receptor assessed as inhibition of agonist-induced cAMP levels at 10 uM. It counts as protein-complex assay. Background: Cyclic AMP is a second messenger, typically raised through Gs and lowered through Gi signalling.

Data set [6] concerns the target T3, Neuropeptide Y receptor type 1 (Homo sapiens) (UniProt P25929).
T3 sequence (whole entry): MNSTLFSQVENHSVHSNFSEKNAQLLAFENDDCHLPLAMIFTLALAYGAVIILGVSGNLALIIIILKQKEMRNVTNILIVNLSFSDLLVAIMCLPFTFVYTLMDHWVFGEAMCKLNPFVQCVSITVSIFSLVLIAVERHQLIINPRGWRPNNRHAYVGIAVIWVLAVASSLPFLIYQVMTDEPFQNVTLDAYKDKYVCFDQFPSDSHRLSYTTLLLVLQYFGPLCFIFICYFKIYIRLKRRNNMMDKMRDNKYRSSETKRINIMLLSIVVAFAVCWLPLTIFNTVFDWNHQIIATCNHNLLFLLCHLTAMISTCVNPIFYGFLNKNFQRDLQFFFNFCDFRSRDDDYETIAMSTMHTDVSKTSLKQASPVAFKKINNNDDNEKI
Kind of data set: Antagonist activity at recombinant human NPY1R assessed as inhibition of agonist-induced cAMP levels at 10 uM by HTRF assay. Format: functional.

Data set [7] concerns the target Delta-type opioid receptor (Homo sapiens) (UniProt P41143). Kind of data set: Antagonist activity at human delta-type opioid receptor assessed as inhibition of agonist-induced effect at 10 uM by GTPgamma[35S] binding-based assay. Format: functional.
Data set [8] addresses Mu-type opioid receptor (Homo sapiens) (UniProt P35372). In words: Antagonist activity at human mu-type opioid receptor assessed as inhibition of agonist-induced effect at 10 uM by GTPgamma[35S] binding-based assay. It counts as functional.
For data set [9], the target named is Vasopressin V1a receptor (Homo sapiens) (UniProt P37288). Kind of data set: Antagonist activity at recombinant human V1A receptor assessed as inhibition of agonist-induced effect at 10 uM by aequorin reporter based assay. Format: functional.
Data set [10] deals with T4, Vasoactive intestinal polypeptide receptor 1 (Homo sapiens) (UniProt P32241).
T4 sequence (whole entry): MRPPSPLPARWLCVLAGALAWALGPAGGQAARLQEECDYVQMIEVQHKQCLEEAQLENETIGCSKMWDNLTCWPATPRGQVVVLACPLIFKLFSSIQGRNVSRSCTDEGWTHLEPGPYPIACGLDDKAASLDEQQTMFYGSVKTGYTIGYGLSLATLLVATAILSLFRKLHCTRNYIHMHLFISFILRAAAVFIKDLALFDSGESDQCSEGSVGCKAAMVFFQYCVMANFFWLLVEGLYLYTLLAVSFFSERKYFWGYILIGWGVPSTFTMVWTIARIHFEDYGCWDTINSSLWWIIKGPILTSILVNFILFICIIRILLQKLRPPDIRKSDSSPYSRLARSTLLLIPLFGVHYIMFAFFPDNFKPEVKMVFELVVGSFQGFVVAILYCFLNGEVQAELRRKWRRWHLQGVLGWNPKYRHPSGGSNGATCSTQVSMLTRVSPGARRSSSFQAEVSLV
In words: Antagonist activity at recombinant human VPAC1 receptor assessed as inhibition of agonist-induced effect at 10 uM by aequorin reporter based assay. Format: functional.

Data set [11] addresses T5, Adenosine receptor A3 (Homo sapiens) (UniProt P0DMS8).
T5 sequence (whole entry): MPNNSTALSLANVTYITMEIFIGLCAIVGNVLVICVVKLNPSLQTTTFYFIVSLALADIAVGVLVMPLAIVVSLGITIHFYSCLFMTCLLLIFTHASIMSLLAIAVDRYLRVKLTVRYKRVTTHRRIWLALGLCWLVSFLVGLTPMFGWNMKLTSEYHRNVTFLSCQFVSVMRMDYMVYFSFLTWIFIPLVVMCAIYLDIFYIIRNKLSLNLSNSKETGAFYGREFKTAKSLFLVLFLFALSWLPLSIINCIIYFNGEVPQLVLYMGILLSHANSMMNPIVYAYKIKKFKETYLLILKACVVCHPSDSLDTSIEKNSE
Kind of data set: Antagonist activity at recombinant human adenosine A3 receptor assessed as inhibition of agonist-induced cAMP induction at 10 uM by HTRF assay. Format: functional.

Sequence of Mu-type opioid receptor (Homo sapiens) (P35372 whole entry): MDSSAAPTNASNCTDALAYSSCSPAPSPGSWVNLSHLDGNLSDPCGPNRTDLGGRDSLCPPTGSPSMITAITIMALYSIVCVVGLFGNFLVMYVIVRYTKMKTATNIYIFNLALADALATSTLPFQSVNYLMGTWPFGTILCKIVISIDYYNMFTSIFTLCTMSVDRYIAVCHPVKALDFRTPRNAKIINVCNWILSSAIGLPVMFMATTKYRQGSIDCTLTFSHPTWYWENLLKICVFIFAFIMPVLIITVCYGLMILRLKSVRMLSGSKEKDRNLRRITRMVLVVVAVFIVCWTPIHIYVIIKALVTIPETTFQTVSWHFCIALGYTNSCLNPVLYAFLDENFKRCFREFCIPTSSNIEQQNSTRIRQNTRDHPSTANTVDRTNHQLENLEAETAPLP
Sequence of Delta-type opioid receptor (Homo sapiens) (P41143 whole entry): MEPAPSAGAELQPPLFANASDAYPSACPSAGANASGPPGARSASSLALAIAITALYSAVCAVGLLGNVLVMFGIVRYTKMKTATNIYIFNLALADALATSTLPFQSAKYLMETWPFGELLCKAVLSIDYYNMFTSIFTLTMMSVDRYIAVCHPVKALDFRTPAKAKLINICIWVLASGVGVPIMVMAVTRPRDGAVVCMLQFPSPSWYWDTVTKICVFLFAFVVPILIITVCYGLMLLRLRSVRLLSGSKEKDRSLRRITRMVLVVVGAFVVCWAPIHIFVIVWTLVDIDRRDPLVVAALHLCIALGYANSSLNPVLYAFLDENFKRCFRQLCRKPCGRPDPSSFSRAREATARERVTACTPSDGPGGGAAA
Sequence of 5-hydroxytryptamine receptor 7 (Homo sapiens) (P34969 whole entry): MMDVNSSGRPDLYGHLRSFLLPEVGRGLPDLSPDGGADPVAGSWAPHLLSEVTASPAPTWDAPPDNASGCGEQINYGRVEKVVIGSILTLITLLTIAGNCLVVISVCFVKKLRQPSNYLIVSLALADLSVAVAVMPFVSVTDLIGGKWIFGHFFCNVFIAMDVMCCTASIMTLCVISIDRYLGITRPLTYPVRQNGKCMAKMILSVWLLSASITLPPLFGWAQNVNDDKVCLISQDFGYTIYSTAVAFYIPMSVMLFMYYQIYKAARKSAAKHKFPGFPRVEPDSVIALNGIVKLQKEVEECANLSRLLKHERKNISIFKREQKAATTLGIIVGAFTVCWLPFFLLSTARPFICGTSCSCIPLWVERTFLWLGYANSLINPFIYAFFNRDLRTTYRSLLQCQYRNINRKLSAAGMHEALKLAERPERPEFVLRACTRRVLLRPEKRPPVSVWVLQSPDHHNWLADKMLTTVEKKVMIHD
Sequence of Vasopressin V1a receptor (Homo sapiens) (P37288 whole entry, looked up): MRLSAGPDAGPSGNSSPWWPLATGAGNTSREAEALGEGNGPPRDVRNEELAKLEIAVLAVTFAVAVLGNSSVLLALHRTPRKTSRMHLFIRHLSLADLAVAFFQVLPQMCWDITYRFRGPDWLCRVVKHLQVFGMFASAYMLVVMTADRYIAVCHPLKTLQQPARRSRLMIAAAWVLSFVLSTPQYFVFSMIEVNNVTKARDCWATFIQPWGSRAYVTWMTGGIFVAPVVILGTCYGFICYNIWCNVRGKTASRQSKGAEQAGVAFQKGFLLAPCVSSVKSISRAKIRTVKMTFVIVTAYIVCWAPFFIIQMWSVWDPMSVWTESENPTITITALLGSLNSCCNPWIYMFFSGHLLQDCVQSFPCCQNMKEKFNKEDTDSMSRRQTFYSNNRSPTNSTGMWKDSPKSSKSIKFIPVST
Sequence of Cannabinoid receptor 1 (Homo sapiens) (P21554 whole entry): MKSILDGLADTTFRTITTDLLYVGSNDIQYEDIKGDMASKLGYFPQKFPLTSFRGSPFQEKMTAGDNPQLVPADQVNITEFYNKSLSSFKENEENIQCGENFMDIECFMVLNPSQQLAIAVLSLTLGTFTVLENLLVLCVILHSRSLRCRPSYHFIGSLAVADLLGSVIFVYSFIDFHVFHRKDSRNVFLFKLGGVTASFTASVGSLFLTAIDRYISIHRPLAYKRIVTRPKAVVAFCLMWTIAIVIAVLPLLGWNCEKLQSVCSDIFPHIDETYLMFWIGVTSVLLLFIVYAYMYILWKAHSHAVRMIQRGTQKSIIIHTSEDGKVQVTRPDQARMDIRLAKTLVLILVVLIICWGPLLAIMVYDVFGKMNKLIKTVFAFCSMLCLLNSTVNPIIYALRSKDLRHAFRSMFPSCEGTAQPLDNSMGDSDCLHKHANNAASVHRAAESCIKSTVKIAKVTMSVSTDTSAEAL

Regarding `CN(CCCNC(=O)c1cccc(Br)c1)Cc1ccccc1`, the IC50 in the data set with SH-SY5Y is above 100 µM. The selectivity ratio with S1R (sigma-1 receptor) was above 25600. Moreover, the inhibition in data set [1] is -4%; in data set [2], 7%; in data set [3], 3%; in [4] it was -9%; in data set [5] it was 5%; in data set [6], -5%. For the same molecule, the inhibition was 7% in data set [7], 29% in data set [8], 14% in data set [9] and 31% in data set [10].

With `CN(CCCNC(=O)c1ccc(C(F)(F)F)cc1)Cc1ccccc1`, the inhibition in data set [1] is -9%; in data set [11] it was 18%; in data set [2], -2%; in [3], 10%; in data set [4], 2%; in data set [5], 14%. In addition, the inhibition was -1% in data set [8], 6% in data set [9] and 31% in [10].

In the case of `CCCc1ccc(C(=O)NCCCN(C)Cc2ccccc2)cc1`, the inhibition in data set [1] was 2%; in data set [11] it was 8%; in data set [2] it was -6%; in data set [3], 4%; in data set [5], 15%; in [6], -7%. The inhibition is -5% in data set [7], -4% in data set [8], 11% in data set [9] and 0% in data set [10].

`CN(CCNC(=O)c1ccc([N+](=O)[O-])cc1)Cc1ccccc1`: the IC50 with SH-SY5Y is above 100 µM. For the same molecule, the selectivity ratio in the data set with S1R (sigma-1 receptor) was above 27800. In addition, the inhibition in data set [1] was -2%; in data set [11], 5%; in [5], 3%; in data set [6], -1%; in data set [7] it was 8%; in data set [8], 15%. The inhibition in [9] stood at 6%; in data set [10] it was 22%.

As to `CN(CCNC(=O)c1ccc(C#N)cc1)Cc1ccccc1`, the IC50 in the data set on SH-SY5Y is above 100 µM. The selectivity ratio in the data set on S1R (sigma-1 receptor) is above 83300. In addition, the inhibition is -2% in data set [1]; -6% in [11]; 6% in data set [4]; 1% in data set [5]; -2% in [6]; 0% in data set [7]. Further, the inhibition in data set [8] came to 9%; in data set [9] it was 9%; in [10], 3%.

Take `CN(CCCNC(=O)c1ccc(Br)cc1)Cc1ccccc1`: the inhibition in data set [1] is 0%; in data set [11], 24%; in data set [3], -2%; in [5], 5%; in [6] it was -3%; in [7], -5%. For the same molecule, the inhibition in data set [8] was -9%; in data set [9], 0%; in data set [10], 4%.

Turning to `CN(CCNC(=O)c1ccc(Cl)cc1)Cc1ccccc1`, the IC50 with SH-SY5Y is above 100 µM. In addition, in the data set on S1R (sigma-1 receptor), the selectivity ratio was above 27800. For the same molecule, the inhibition in data set [11] was -1%; in data set [2], 21%; in data set [3] it was 4%; in [4] it was -9%; in data set [5], 4%; in [6], -1%. The inhibition in data set [7] turned out to be 18%; in [9], 18%; in data set [10] it was 30%.

Take `COc1cccc(C(=O)NCCCN(C)Cc2ccccc2)c1`: the inhibition in [1] is -3%; in data set [2] it was 20%; in data set [3] it was -5%; in data set [4], 5%; in data set [5] it was 0%; in data set [6], 3%. The inhibition in data set [8] stood at 20%; in data set [9], 3%; in data set [10], 1%.

Take `CN(CCCNC(=O)c1ccc(Cl)cc1)CCc1ccccc1`: the IC50 in the data set with SH-SY5Y was above 100 µM. The selectivity ratio in the data set on S1R (sigma-1 receptor) is above 23300. The inhibition in data set [11] is 10%; in data set [2], 11%; in data set [3], 1%; in data set [5], 16%; in data set [6], -1%; in data set [7], 6%. Moreover, the inhibition is 9% in data set [8], 36% in data set [9] and 17% in data set [10].

For the molecule `COc1ccc(C(=O)NCCCN(C)Cc2ccccc2)cc1`, the inhibition in data set [1] is -5%; in data set [11], 12%; in [2], -10%; in [3], -8%; in [4], -1%; in data set [6], 1%. The inhibition in data set [7] was -2%; in data set [8] it was 20%; in [9], -9%.

In the case of `CN(CCCNC(=O)c1ccc([N+](=O)[O-])cc1)Cc1ccccc1`, the inhibition in [11] was -7%; in data set [2], 17%; in [3] it was 5%; in [4], 0%; in data set [5], 12%; in data set [6], 6%. Besides, the inhibition was 5% in data set [7], -6% in data set [8], 6% in data set [9] and 0% in data set [10].

In the case of `CN(CCCNC(=O)c1ccc(Cl)cc1)Cc1ccccc1`, in the data set with SH-SY5Y, the IC50 was above 100 µM. In the data set with S1R (sigma-1 receptor), the selectivity ratio was above 31200. The inhibition in [1] is -1%; in data set [11], 16%; in data set [2] it was -3%; in data set [3], 5%; in data set [4] it was -5%; in [5] it was 8%. Further, the inhibition is -4% in data set [6], 9% in data set [7], 8% in data set [8] and 7% in data set [10].

What is called IC50 is the concentration that gives 50% inhibition. As a reminder, the inhibition is the change of the read-out against control, counted positive when it falls.

The values are drawn from ChEMBL document CHEMBL4130363, “Synthesis and pharmacological evaluation of benzamide derivatives as potent and selective sigma-1 protein ligands” (Eur J Med Chem, 2017).
